{
  "source": "the NIST ThermoML archive (doi:10.1016/j.fluid.2019.06.004)",
  "key": {"[1]": {"assay": "Molar enthalpy of transition or fusion", "settings": "DSC"}},
  "note": "Numbers after ± are expanded uncertainties.",
  "data": [
    {"smiles": "NC(=O)c1cnccn1", "note": "[pyrazinecarboxamide]", "values": [
      {"measurement": "Normal melting temperature", "setting": "Crystal", "value": "188.96 ± 2.2", "unit": "°C"},
      {"measurement": "Triple point temperature", "setting": "Crystal 2, DSC", "value": "421.11 ± 1.2", "unit": "K"},
      {"measurement": "Molar enthalpy of transition or fusion", "setting": "[1]; Crystal 2", "value": "0.363 ± 0.043", "unit": "kcal/mol"},
      {"measurement": "Molar enthalpy of transition or fusion", "setting": "[1]; Crystal", "value": "6.09 ± 0.502", "unit": "kcal/mol"}
    ]}
  ]
}
